# In patent US20250215029A1 (Recludix Pharma, Inc., priority 2022, published 2025):
# Read-outs that look alike come from different tables or passages of the source.
# Key:
# pY705-STAT3 in PBMC = biological target: T1, pY705-STAT3 in PBMC (Homo sapiens, UniProt P40763); test: MSD-pSTAT-PBMC Assay (pSTAT3, IL-6 stimulated); assay type: cell-based; details: PBMC, compound 3 hrs, then 10 ng/mL IL-6 for 10 min; Table 115; read-out: STAT3
# T1 construct: Cryopreserved Peripheral Blood Mononuclear Cells (PBMC) are from AllCells; host or cells: cryopreserved PBMC
# T1 sequence (P40763 whole entry): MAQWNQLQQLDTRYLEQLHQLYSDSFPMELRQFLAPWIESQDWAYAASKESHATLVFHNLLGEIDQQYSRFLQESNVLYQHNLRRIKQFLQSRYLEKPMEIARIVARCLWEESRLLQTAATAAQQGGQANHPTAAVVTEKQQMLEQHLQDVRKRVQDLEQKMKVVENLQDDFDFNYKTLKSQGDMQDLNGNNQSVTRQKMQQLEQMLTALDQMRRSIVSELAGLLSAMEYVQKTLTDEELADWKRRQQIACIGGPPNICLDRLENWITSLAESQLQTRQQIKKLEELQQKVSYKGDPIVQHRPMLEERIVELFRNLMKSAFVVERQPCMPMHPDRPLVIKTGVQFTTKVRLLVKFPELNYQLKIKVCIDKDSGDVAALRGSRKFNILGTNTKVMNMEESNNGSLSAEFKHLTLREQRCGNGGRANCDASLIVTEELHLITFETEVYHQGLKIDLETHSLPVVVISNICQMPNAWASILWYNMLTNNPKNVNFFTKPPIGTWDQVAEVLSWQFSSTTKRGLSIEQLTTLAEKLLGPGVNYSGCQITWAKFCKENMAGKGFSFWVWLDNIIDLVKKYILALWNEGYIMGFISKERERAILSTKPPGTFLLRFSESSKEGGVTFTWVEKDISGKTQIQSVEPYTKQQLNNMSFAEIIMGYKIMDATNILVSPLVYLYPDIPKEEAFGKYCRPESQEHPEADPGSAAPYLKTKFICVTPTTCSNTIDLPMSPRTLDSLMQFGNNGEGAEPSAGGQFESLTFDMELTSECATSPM
# How it was run: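 PBMC (human, cryopreserved, overnight recovery) + cpd 3 hrs → IL-6 10 ng/mL (STAT3) or IL-4 1 ng/mL (STAT6) ×10 min → lysis with protease/phosphatase inhibitors → MSD capture/phospho detection. IC50, variable slope, DMSO-normalized.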
# pY641-STAT6 in PBMC = biological target: T2, pY641-STAT6 in PBMC (Homo sapiens, UniProt P42226); test: MSD-pSTAT-PBMC Assay (pSTAT6, IL-4 stimulated); assay type: cell-based; details: compound 3 hrs, then 1 ng/mL IL-4 for 10 min, Table 115
# T2 construct: Cryopreserved Peripheral Blood Mononuclear Cells (PBMC) are from AllCells; host or cells: cryopreserved PBMC
# T2 sequence (P42226 1-847): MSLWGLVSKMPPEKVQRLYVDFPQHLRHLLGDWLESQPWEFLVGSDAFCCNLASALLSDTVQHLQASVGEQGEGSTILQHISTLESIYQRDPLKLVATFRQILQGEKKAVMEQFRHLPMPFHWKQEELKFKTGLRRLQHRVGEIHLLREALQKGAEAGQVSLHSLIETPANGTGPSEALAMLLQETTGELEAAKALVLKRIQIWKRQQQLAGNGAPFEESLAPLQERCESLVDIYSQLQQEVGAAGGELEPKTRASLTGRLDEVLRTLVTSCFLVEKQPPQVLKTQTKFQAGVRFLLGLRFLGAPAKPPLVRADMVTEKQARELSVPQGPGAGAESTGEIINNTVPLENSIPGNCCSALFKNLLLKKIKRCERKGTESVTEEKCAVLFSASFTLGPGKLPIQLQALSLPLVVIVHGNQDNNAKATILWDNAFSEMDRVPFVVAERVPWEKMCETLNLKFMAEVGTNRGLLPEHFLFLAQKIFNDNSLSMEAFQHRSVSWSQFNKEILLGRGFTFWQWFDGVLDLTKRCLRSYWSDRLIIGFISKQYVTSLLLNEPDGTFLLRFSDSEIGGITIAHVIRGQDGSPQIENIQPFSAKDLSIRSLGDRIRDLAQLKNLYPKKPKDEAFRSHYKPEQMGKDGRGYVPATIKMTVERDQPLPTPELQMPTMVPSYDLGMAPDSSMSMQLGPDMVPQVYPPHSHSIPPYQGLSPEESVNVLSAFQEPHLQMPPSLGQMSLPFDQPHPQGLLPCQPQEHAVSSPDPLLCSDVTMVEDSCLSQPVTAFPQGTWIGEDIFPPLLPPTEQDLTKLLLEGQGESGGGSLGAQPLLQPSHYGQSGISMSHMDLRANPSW
# How it was run: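 Inhibition of cytokine-induced STAT phosphorylation was measured in recovered human PBMC after 3 hrs compound exposure and a 10 min IL-4 (1 ng/mL) or IL-6 (10 ng/mL) challenge. MSD detection of pY641-STAT6 or pY705-STAT3 yielded IC50 values.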
Structure (SMILES),IC50 (pY705-STAT3 in PBMC) [nM],"IC50 (pY641-STAT6 in PBMC; STAT6, PBMC) [nM]","IC50 (pY641-STAT6 in PBMC; PBMC, read-out: STAT6) [nM]"
"CCCCOC(=O)[C@H](C)NP(=O)(Oc1ccccc1)C(F)(F)c1ccc2ccc(C(=O)N[C@H]3CCCC[C@H]4CC[C@@H](C(=O)N5CC(c6ccccc6)CC56CC6)N4C3=O)cc2c1 (stereo partly drawn) [Compound 407, butyl ((difluoro(7-(((3S,6S,10aS)-5-oxo-3-(6-phenyl-4-azaspiro[2.4]heptane-4-carbonyl)decahydropyrrolo[1,2-a]azocin-6-yl)carbamoyl)naphthalen-2-yl)methyl)(phenoxy)phosphoryl)-L-alaninate]",> 3000,1000 to 3000,
"CCCOC(=O)[C@H](C)NP(=O)(Cc1ccc2ccc(C(=O)N[C@H]3CCCC[C@H]4CC[C@@H](C(=O)N5C[C@@H](c6cc[nH]c(=O)c6)CC56CC6)N4C3=O)cc2c1)Oc1ccccc1 (stereo partly drawn) [Compound 409, propyl (((7-(((3S,6S,10aS)-5-oxo-3-((R)-6-(2-oxo-1,2-dihydropyridin-4-yl)-4-azaspiro[2.4]heptane-4-carbonyl)decahydropyrrolo[1,2-a]azocin-6-yl)carbamoyl)naphthalen-2-yl)methyl)(phenoxy)phosphoryl)-L-alaninate]",> 3000,1000 to 3000,
"CC(C)COC(=O)[C@H](C)NP(=O)(Cc1ccc2ccc(C(=O)N[C@H]3CCCC[C@H]4CC[C@@H](C(=O)N5CC(c6ccccc6)CC56CC6)N4C3=O)cc2c1)Oc1ccccc1 (stereo partly drawn) [Compound 410, isobutyl (((7-(((3S,6S,10aS)-5-oxo-3-(6-phenyl-4-azaspiro[2.4]heptane-4-carbonyl)decahydropyrrolo[1,2-a]azocin-6-yl)carbamoyl)naphthalen-2-yl)methyl)(phenoxy)phosphoryl)-L-alaninate]",> 3000,> 3000,
"CCCOC(=O)[C@H](C)NP(=O)(Oc1ccccc1)C(F)c1ccc2sc(C(=O)N[C@H]3CCC[C@H]4CC[C@@H](C(=O)N5CC(c6cccnc6)C5)N4C3=O)cc2c1 (stereo partly drawn) [Compound 415, propyl ((fluoro(2-(((3S,6S,9aS)-5-oxo-3-(3-(pyridin-3-yl)azetidine-1-carbonyl)octahydro-1H-pyrrolo[1,2-a]azepin-6-yl)carbamoyl)benzo [b]thiophen-5-yl)methyl)(phenoxy)phosphoryl)-L-alaninate]",< 100,1000 to 3000,
"CCCOC(=O)[C@H](C)NP(=O)(Oc1ccccc1)C(F)(F)c1ccc2ccc(C(=O)N[C@H]3CCCC[C@H]4CC[C@@H](C(=O)N5C[C@H](c6cc[nH]c(=O)c6)CC56CC6)N4C3=O)cc2c1 (stereo partly drawn) [Compound 419, propyl ((difluoro(7-(((3S,6S,10aS)-5-oxo-3-((S)-6-(2-oxo-1,2-dihydropyridin-4-yl)-4-azaspiro[2.4]heptane-4-carbonyl)decahydropyrrolo[1,2-a]azocin-6-yl)carbamoyl)naphthalen-2-yl)methyl)(phenoxy)phosphoryl)-L-alaninate]",> 3000,100 to 1000,
"CCCOC(=O)[C@H](C)NP(=O)(Cc1ccc2ccc(C(=O)N[C@H]3CCCC[C@H]4CC[C@@H](C(=O)N5CC(c6ccccc6)CC56CC6)N4C3=O)cc2c1)Oc1ccccc1 (stereo partly drawn) [Compound 421, propyl (((7-(((3S,6S,10aS)-5-oxo-3-(6-phenyl-4-azaspiro[2.4]heptane-4-carbonyl)decahydropyrrolo[1,2-a]azocin-6-yl)carbamoyl)naphthalen-2-yl)methyl)(phenoxy)phosphoryl)-L-alaninate]",> 3000,100 to 1000,
"CCCOC(=O)[C@H](C)NP(=O)(Oc1ccccc1)[C@H](F)c1ccc2sc(C(=O)N[C@H]3CCCC[C@H]4CC[C@@H](C(=O)N5C[C@H](c6ccccc6)[C@@H](C#N)C56CC6)N4C3=O)cc2c1 (stereo partly drawn) [Compound 485, propyl (((S)-(2-(((3S,6S,10aS)-3-((6S,7R)-7-cyano-6-phenyl-4-azaspiro[2.4]heptane-4-carbonyl)-5-oxodecahydropyrrolo [1,2-a]azocin-6-yl)carbamoyl)benzo [b]thiophen-5-yl)fluoromethyl) (phenoxy)phosphoryl)-L-alaninate]",> 3000,< 100,
"CCCC(=O)SCCOP(=O)(OCCSC(=O)CCC)C(F)(F)c1ccc2sc(C(=O)N[C@H]3CCC[C@H]4CC[C@@H](C(=O)N5CC(c6ncccn6)C5)N4C3=O)cc2c1 [Compound 940, S,S′-((((difluoro(2-(((3S,6S,9aS)-5-oxo-3-(3-(pyrimidin-2-yl)azetidine-1-carbonyl)octahydro-1H-pyrrolo[1,2-a]azepin-6-yl)carbamoyl)benzo [b]thiophen-5-yl)methyl)phosphoryl)bis(oxy))bis(ethane-2,1-diyl)) dibutanethioate]",< 100,,100 to 1000
"CCCOC(=O)[C@H](C)NP(=O)(Oc1ccccc1)[C@@H](F)c1ccc2sc(C(=O)N[C@H]3CCC[C@H]4CC[C@@H](C(=O)N5CC(c6cnccc6N(C)C)C5)N4C3=O)cc2c1 (stereo partly drawn) [Compound 942, propyl (((R)-(2-(((3S,6S, 9aS)-3-(3-(4-(dimethylamino)pyridin-3-yl)azetidine-1-carbonyl)-5-oxooctahydro-1H-pyrrolo[1,2-a]azepin-6-yl)carbamoyl)benzo [b]thiophen-5-yl)fluoromethyl) (phenoxy)phosphoryl)-L-alaninate]",100 to 1000,> 3000,
"CCCOC(=O)[C@H](C)NP(=O)(Oc1ccccc1)C(F)c1ccc2sc(C(=O)N[C@H]3CCC[C@H]4CC[C@@H](C(=O)N5CC(c6cnccc6F)C5)N4C3=O)cc2c1 (stereo partly drawn) [Compound 943, propyl ((fluoro(2-(((3S,6S,9aS)-3-(3-(4-fluoropyridin-3-yl)azetidine-1-carbonyl)-5-oxooctahydro-1H-pyrrolo[1,2-a]azepin-6-yl)carbamoyl)benzo [b]thiophen-5-yl)methyl)(phenoxy)phosphoryl)-L-alaninate]",< 100,> 3000,
"CC(C)CC(=O)SCCOP(=O)(OCCSC(=O)CC(C)C)C(F)(F)c1ccc2sc(C(=O)N[C@H]3CCC[C@H]4CC[C@@H](C(=O)N5CC(c6ncccn6)C5)N4C3=O)cc2c1 [Compound 961, S,S′-((((difluoro(2-(((3S,6S,9aS)-5-oxo-3-(3-(pyrimidin-2-yl)azetidine-1-carbonyl)octahydro-1H-pyrrolo[1,2-a]azepin-6-yl)carbamoyl)benzo [b]thiophen-5-yl)methyl)phosphoryl)bis(oxy))bis(ethane-2,1-diyl)) bis(3-methylbutanethioate)]",< 100,,1000 to 3000
"CC(C)(C)C(=O)SCCOP(=O)(OCCSC(=O)C(C)(C)C)C(F)(F)c1ccc2sc(C(=O)N[C@H]3CCC[C@H]4CC[C@@H](C(=O)N5CC(c6ncccn6)C5)N4C3=O)cc2c1 [Compound 962, S,S′-((((difluoro(2-(((3S,6S,9aS)-5-oxo-3-(3-(pyrimidin-2-yl)azetidine-1-carbonyl)octahydro-1H-pyrrolo[1,2-a]azepin-6-yl)carbamoyl)benzo [b]thiophen-5-yl)methyl)phosphoryl)bis(oxy))bis(ethane-2,1-diyl))bis(2,2-dimethyl-propanethioate)]",< 100,,> 3000
"CCCOC(=O)[C@H](C)NP(=O)(Cc1ccc2sc(C(=O)N[C@H]3CCC[C@H]4CC[C@@H](C(=O)N5CC(c6cnccc6N(C)C)C5)N4C3=O)cc2c1)Oc1ccccc1 (stereo partly drawn) [Compound 973, propyl (((2-(((3S,6S,9aS)-3-(3-(4-(dimethylamino)pyridin-3-yl)azetidine-1-carbonyl)-5-oxooctahydro-1H-pyrrolo[1,2-a]azepin-6-yl)carbamoyl)benzo [b]thiophen-5-yl)methyl)(phenoxy)phosphoryl)-L-alaninate]",< 100,> 3000,
